Patent publication US11234437B2 (priority 2017, dated 2022)

Tests used:
Fusarium culmorum [1] = assay: microbe, parasite or virus in culture; assay type: cell-based; settings: read-out: control of Fusarium culmorum
[2] = test system: Magnaporthe grisea (Pyricularia oryzae); assay: microbe, parasite or virus in culture; assay type: cell-based; settings: read-out: control of Magnaporthe grisea
[3] = test system: Glomerella lagenarium (Colletotrichum lagenarium); assay: Glomerella lagenarium (Colletotrichum lagenarium) / liquid culture (anthracnose); assay type: cell-based; settings: Colletotrichum orbiculare, compared to untreated control
Experimental: (§1) Conidia of the fungus from cryogenic storage are directly mixed into nutrient broth (PDB potato dextrose broth). After placing a (DMSO) solution of test compound into a microtiter plate (96-well format), the nutrient broth containing the fungal spores is added. The test plates are incubated at 24° C. and the inhibition of growth is measured photometrically 3-4 days after application.

[4] = test system: Monographella nivalis (Microdochium nivale); assay: Monographella nivalis (Microdochium nivale) / liquid culture (foot rot cereals); assay type: cell-based; settings: compared to untreated control
Experimental: Monographella nivalis (Microdochium nivale)/Liquid Culture (Foot Rot Cereals)
as §1, with “determined” for “measured”, “4-5” for “3-4”

[5] = test system: Botryotinia fuckeliana (Botrytis cinerea); assay: Botryotinia fuckeliana (Botrytis cinerea) / liquid culture (gray mould); assay type: cell-based; settings: compared to untreated control
Experimental: Botryotinia fuckeliana (Botrytis cinerea)/Liquid Culture (Gray Mould)
as §1, with “(Vogels” for “(PDB potato dextrose”, “determined” for “measured”

[6] = test system: Gibberella zeae (Fusarium graminearum); assay: whole plant or invertebrate; assay type: in vivo; settings: in Triticum aestivum, read-out: control of Gibberella zeae
Fusarium culmorum [7] = assay: whole plant or invertebrate; assay type: in vivo; settings: in Triticum aestivum, read-out: control of Fusarium culmorum
Sclerotinia sclerotiorum = Sclerotinia sclerotiorum / liquid culture (cottony rot); assay type: cell-based; settings: compared to untreated control
Experimental: Sclerotinia sclerotiorum/Liquid Culture (Cottony Rot)
Mycelia fragments of a newly grown liquid culture of the fungus are directly mixed into nutrient broth (Vogels broth). After placing a (DMSO) solution of test compound into a microtiter plate (96-well format) the nutrient broth containing the fungal material is added. The test plates are incubated at 24° C. and the inhibition of growth is determined photometrically 3-4 days after application.

Row | SMILES | inhibition of growth at 200 ppm (Fusarium culmorum [1]) [%] | inhibition of growth at 20 ppm [2] [%] | inhibition of growth at 200 ppm [3] [%] | inhibition of growth at 20 ppm [4] [%] | inhibition of growth at 200 ppm [5] [%] | pest or weed control at 200 ppm [6] [%] | pest or weed control at 200 ppm (Fusarium culmorum [7]) [%] | inhibition of growth at 20 ppm (Sclerotinia sclerotiorum) [%] | melting point [°C]
1 | C[C@](Cc1ccccc1)(CC1(F)CC1)NC(=O)c1cnc2c(F)cccc2c1 [Compound F-24, N-[(1S)-1-benzyl-2-(1-fluorocyclopropyl)-1-methyl-ethyl]-8-fluoro-quinoline-3-carboxamide] | ≥ 80 | ≥ 80 | ≥ 80 | ≥ 80 | ≥ 80 | ≥ 80 | ≥ 80 | ≥ 80 | –
2 | C[C@](Cc1ccccc1)(CC(F)(F)F)NC(=O)c1cnc2ccccc2c1 [Compound F-34, N-[(1S)-1-benzyl-3,3,3-trifluoro-1-methyl-propyl]quinoline-3-carboxamide] | ≥ 80 | ≥ 80 | ≥ 80 | ≥ 80 | ≥ 80 | ≥ 80 | ≥ 80 | ≥ 80 | –
3 | C=C(Cl)C[C@](C)(Cc1ccccc1)NC(=O)c1cnc2c(F)cccc2c1 [Compound F-35] | ≥ 80 | ≥ 80 | ≥ 80 | ≥ 80 | ≥ 80 | ≥ 80 | ≥ 80 | ≥ 80 | –
4 | C=C(Cl)CC(C)(Cc1ccccc1)NC(=O)c1cnc2c(F)cccc2c1 (centres unmarked) [X.001] | ≥ 80 | ≥ 80 | ≥ 80 | ≥ 80 | ≥ 80 | ≥ 80 | ≥ 80 | ≥ 80 | 56 to 59
5 | CC(Cc1ccccc1)(CC(F)(F)F)NC(=O)c1cnc2ccccc2c1 (centres unmarked) [X.020, N-(1-benzyl-3,3,3-trifluoro-1-methyl-propyl)quinoline-3-carboxamide] | ≥ 80 | ≥ 80 | ≥ 80 | – | ≥ 80 | ≥ 80 | ≥ 80 | ≥ 80 | 130 to 132
